According to article PMC9144902, “Metal(II) Complexes of the Fluoroquinolone Fleroxacin: Synthesis, Characterization and Biological Profile” (Pharmaceutics, 2022):

How the values were obtained:
[1] = system: EB–DNA adduct (CT DNA); test: Competitive study with EB (EB–DNA fluorescence quenching); type: binding, calf; conditions: for Ksv, Stern–Volmer constant: EB–DNA adduct; for ΔI/Io, percentage of EB–DNA fluorescence quenching: [EB] = 20 μM, [DNA] = 26 μM, λexc 540 nm, λem 592 nm; for EB–DNA relative fluorescence emission intensity, % of the initial (I/Io): λemission = 592 nm, final value (up to), Figure S14; for kq, EB–DNA quenching constant: τo = 23 ns
Experimental: Ethidium bromide is a typical marker of intercalation because it can intercalate between adjacent DNA bases with its planar phenanthridine ring.
The fluorescence emission spectra of the EB–DNA adduct ([EB] = 20 μM, [DNA] = 26 μM) in the absence and presence of the compounds were recorded at increasing amounts of the respective compounds. […] As a conclusion, an intercalative interaction of the complexes with CT DNA can be proposed.
The values of the Stern–Volmer constants (Ksv) for the compounds were calculated using the linear Stern–Volmer equation (Equation (S2)) and were of the order of 10^5 M^−1 (Table 8), indicating tight binding of the complexes with DNA [61]. The Ksv values for the complexes are in the range found for a number of metal(II)–quinolone complexes, and complex 12 presents the highest Ksv value (Ksv = 7.25(±0.30) × 10^5 M^−1) among the compounds studied. In addition, the EB–DNA quenching constants (kq) for the compounds were calculated with Equation (S3), assuming τo = 23 ns as the fluorescence lifetime. The values of kq (Table 8) are much higher than the value of 10^10 M^−1s^−1, indicating a static mechanism of EB–DNA fluorescence quenching induced by the compounds, which can result from the formation of a new adduct apparently consisting of each complex and DNA [61].
In order to determine and confirm the DNA–binding mode of the compounds, a competitive study with EB as an intercalating marker is performed b y fluorescence emission spectroscopy.
Therefo re, the E B–displacing abilit y of the compounds from its EB –DN A conjugate was ex amined.
The DNA–EB adduct was prepared b y addition of 20 μM EB and 26 μM CT DNA in buffer solution (150 mM NaCl and 15 mM trisodium citrate at pH 7.0). The potential intercalation of the compounds between the DNA–bases was studied by the addition of a certain amount of the compound solution into the EB–DNA adduct solution. The influence of the compounds on the EB – DNA solution was monitored through the changes of the fluorescence emission spectra at excitation […]
wavelen gth (λex ) at 540 nm [S3]. […]
room temperature in solution or in the presence of DNA, under the same experimental conditions (λex = 540 nm). Bearing t hat in mind, the observed quenching of the EB–DNA solution is evidentl y associated to the displacement of EB from its EB–DNA adduct.
The quenching effici ency (KSV) for each compound was assessed according to the Stern – Volmer equation: Io =1+ k τ [Q] = 1+ K [Q], (eq. S2) [S3] where I0 and I = the fluorescence […]
emission intensities of EB–DNA in the absence and presence of the quencher, respectivel y, [Q] = the concentration of the quencher (i.e. compounds). KSV is obtained from t he Stern–Volmer plots b y the slope of the diagram I0/ I versus [Q]. Taking τ0 = 23 ns as the fluorescence lifetime of the EB– DNA s ystem [S5], the EB –DNA quenching constants (k q) of the compounds can be determined accordin g to eq.S3: K SV = kqτo . […]
[S2] Irgi, E.P.; Geromichalos, G.D.; Balala, S.; Kljun, J.; Kalogiannis, S.; Papadopoulos, A.; Turel, I.; Psomas, G. Cobalt(II) complexes with quinolone antimicrobial drug oxolinic acid: […]
[ S 5] Heller, D.P.; Greenstock, C.L. Fluorescence lifetime analysis of DNA intercalated ethidium bromide and quenching by free d ye. Biophys. Chem . 1994, 50, 305–312.

[2] = molecular target: T1, human serum albumin (HSA) (Homo sapiens, UniProt P02768); test: Albumin binding by tryptophan fluorescence emission quenching; conditions: for K(HSA), HSA-binding constant / kq(HSA), HSA-quenching constant: HSA 3 μM; for K(HSA), HSA-binding constant: buffer pH 7.0, Scatchard equation; for kq(HSA), HSA-quenching constant: buffer pH 7.0, λexc 295 nm, Stern–Volmer, τ0 = 10^–8 s; for HSA fluorescence, % of the initial fluorescence intensity (I/Io): λem,max = 351 nm, final value of titration (Figure S10)
T1 construct: purchased
Experimental: (§1) Serum albumins (Sas) are the most abundant serum proteins and play a role in the circulatory system, primarily in the transport of drugs and other bioactive small molecules through the bloodstream.
(§2) The SA-quenching constants (kq) for the compounds (Table 5) were calculated with the Stern–Volmer quenching equation (Equations (S2) and (S3)).
(§3) Albumin-binding constants (K) were calculated using the Scatchard equation (Equation (S4)). […]
(§4) S2. Interaction with serum albumins
(§5) The albumin–binding study for the compounds was carried out b y fluorescence emission

[3] = molecular target: T2, bovine serum albumin (BSA) (Bos taurus, UniProt P02769); test: as above; conditions: for K(BSA), BSA-binding constant / kq(BSA), BSA-quenching constant: BSA 3 μM; for K(BSA), BSA-binding constant: buffer pH 7.0, Scatchard equation; for kq(BSA), BSA-quenching constant: buffer pH 7.0, λexc 295 nm, Stern–Volmer, τ0 = 10^–8 s; for BSA fluorescence, % of the initial fluorescence intensity (I/Io): λem,max = 342 nm, final value of titration (Figure S11)
T2 construct: purchased
Experimental: as §1, §2, §3, §4, §5

[4] = system: Bacillus subtilis ATCC 6633; test: Antimicrobial activity, MIC determination; type: cell-based; conditions: B. subtilis; 24-h incubation, 37°C
Experimental: (§6) The in vitro antimicrobial activity of the compounds was evaluated by determining the minimum inhibitory concentration (MIC) against the Gram-positive microorganisms Staphylococcus aureus ATCC 6538 (S. aureus) and Bacillus subtilis ATCC 6633 (B. subtilis) and the Gram-negative microorganism Xanthomonas campestris ATCC 1395 (X. campestris). The affinity of the compounds for bovine serum albumin (BSA) and human serum albumin (HSA) was studied by fluorescence emission spectroscopy, and the corresponding binding constants were determined. Furthermore, the interaction of the compounds with calf-thymus DNA (CT DNA) was investigated to determine the possible mode of interaction by the following methods: (i) UV–vis spectroscopy (where the DNA-binding constants of the complexes (Kb) were also determined), (ii) DNA-viscosity measurements, (iii) cyclic voltammetry and (iv) competitive DNA-binding studies with the classic intercalator ethidium bromide (EB) performed by fluorescence emission spectroscopy.
(§7) Three bacterial strains, one Gram(−) (X. campestris) and two Gram(+) (S. aureus and B. subtilis), were used in order to test the antimicrobial activity of the compounds.
(§8) The antimicrobial activity of the compounds was evaluated b y determining their respective MIC values towards one Gram–( –) (Xanthomonas campestris ATCC 1395 (X. campestris)) and two Gram–(+) (Staphylococcus aureus ATCC 6538 (S. aureus) and Bacillus subtilis ATCC 6633 (B. subtilis)) bacterial species. Cultures of these microbial strains were grown on a rich selective agar medium and stored at 4°C. The selective media used were Nutrient Agar or Broth for B. subtilis and S. aureus, and Yeast Mold Agar or Broth for X. campestris . Cells picked from the surface of the stored cultures were used to initiate liquid pre–cultures of the same selective medium at an initial turbidity of roughl y 1 McFarland unit. Pre–cultures were incubated for 24 h in a rotar y sh aking incubator and subsequently the y were used to inoculate the test cultures used for the determination of MIC at an initial turbidity of 0.5 McFarland units. The test cultures consisted of Mueller–Hinton broth (Deben Diagnostics Ltd) containing different concentrations of the compounds. Different concentrations were achieved as follows: the compounds were freshly dissolved in DMSO to a concentration of 1 mg/mL and they were diluted with DMSO, using the method of progressive double dilution. Therefore, working solutions with decreasing concentrations of the compounds under investigation were achieved. The working solutions were subsequently diluted to the final desired concentration b y addition to the growth medium at a proportion of 2:98. MIC values were determined as the lowest concentrations of the tested compounds that inhibited visible growth of each respective organism after a 24–h incubation [ S1]. Bacterial growth was determined b y measuring the turbidit y of appropriatel y diluted cultures at 600 nm with reference to equall y diluted sterile growth medium and the inhibition achieved was calculated b y comparing the turbidit y of each culture to the average of the turbidit y of three non–inhibited cultures. All test cultures were grown in triplicates and for the determination of MIC, growth had to be inhibited in at least two cultures of the triplicate. In cubation temperatur e at all stages was 37°C ex cept for X. campestris t h at was cultivated at 28°C [S2]. […]
(§9) The fluorescence spectra of the compounds were recorded under the same experimental conditions and presented a low–intensity emission band in the region 405–410 nm .

[5] = system: Xanthomonas campestris ATCC 1395; test: Antimicrobial activity, MIC determination; type: cell-based; conditions: X. campestris; 24-h incubation, 28°C
Experimental: as §6, §7, §8, §9

[6] = system: Staphylococcus aureus ATCC 6538; test: Antimicrobial activity, MIC determination; type: cell-based; conditions: S. aureus; 24-h incubation, 37°C
Experimental: as §6, §7, §8, §9

T1 sequence (P02768 25-609): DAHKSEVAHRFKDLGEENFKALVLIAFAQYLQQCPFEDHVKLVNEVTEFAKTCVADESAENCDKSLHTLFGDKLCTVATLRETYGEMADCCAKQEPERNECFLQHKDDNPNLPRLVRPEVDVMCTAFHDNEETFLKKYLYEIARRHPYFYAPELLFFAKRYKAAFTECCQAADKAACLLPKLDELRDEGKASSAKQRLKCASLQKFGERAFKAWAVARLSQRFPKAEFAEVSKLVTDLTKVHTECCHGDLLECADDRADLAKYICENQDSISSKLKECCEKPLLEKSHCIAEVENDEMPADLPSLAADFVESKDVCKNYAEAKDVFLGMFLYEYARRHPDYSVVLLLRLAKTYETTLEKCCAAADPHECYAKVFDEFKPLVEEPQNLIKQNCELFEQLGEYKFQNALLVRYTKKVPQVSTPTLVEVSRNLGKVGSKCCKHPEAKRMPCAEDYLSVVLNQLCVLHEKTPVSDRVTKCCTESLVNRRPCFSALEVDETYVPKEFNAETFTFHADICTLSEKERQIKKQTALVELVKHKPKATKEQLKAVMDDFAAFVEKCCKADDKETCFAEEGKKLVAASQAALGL
T2 sequence (P02769 25-607): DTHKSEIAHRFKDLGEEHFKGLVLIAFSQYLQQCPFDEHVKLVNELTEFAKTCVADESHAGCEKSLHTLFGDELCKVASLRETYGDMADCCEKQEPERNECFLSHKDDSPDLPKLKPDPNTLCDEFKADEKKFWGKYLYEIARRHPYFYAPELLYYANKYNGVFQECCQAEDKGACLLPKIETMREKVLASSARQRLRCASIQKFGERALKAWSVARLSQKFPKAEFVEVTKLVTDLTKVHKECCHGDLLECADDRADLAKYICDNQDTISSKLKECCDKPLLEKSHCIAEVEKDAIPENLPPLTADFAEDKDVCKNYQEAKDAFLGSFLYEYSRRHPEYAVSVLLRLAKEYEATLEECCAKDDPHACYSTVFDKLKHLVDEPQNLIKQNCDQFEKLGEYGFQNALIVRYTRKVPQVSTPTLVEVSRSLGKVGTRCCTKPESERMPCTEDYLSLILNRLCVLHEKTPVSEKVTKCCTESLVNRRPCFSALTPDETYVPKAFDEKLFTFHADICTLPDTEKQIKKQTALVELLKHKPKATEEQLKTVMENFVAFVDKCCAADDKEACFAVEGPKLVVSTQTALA

| SMILES | Ksv, Stern–Volmer constant [1] | ΔI/Io, percentage of EB–DNA fluorescence quenching [1] [%] | EB–DNA relative fluorescence emission intensity, % of the initial (I/Io) [1] [%] | kq, EB–DNA quenching constant [1] | K(HSA), HSA-binding constant [2] | kq(HSA), HSA-quenching constant [2] | HSA fluorescence, % of the initial fluorescence intensity (I/Io) [2] [%] | K(BSA), BSA-binding constant [3] | kq(BSA), BSA-quenching constant [3] | BSA fluorescence, % of the initial fluorescence intensity (I/Io) [3] [%] | MIC [4] [µg/mL] | MIC (values in parentheses) [4] [µM] | MIC [5] [µg/mL] | MIC (values in parentheses) [5] [µM] | MIC [6] [µg/mL] | MIC (values in parentheses) [6] [µM] |
| --- | --- | --- | --- | --- | --- | --- | --- | --- | --- | --- | --- | --- | --- | --- | --- | --- |
| CN1CCN(c2c(F)cc3c(=O)c(C(=O)[O-])cn(CCF)c3c2F)CC1.CN1CCN(c2c(F)cc3c(=O)c(C(=O)[O-])cn(CCF)c3c2F)CC1.[Zn+2].c1ccc(Nc2ccccn2)nc1 [complex 13, [Zn(flrx)2(bipyam)]] | 6.51(±0.19) × 10^5 M^–1 | 81.8 | 18.2 | 2.84(±0.08) × 10^13 M^−1s^−1 | 3.69(±0.14) × 10^4 M^−1 | 1.23(±0.05) × 10^13 M^−1s^−1 | 27.9 | 3.60(±0.14) × 10^4 M^−1 | 3.37(±0.14) × 10^13 M^−1s^−1 | 14.6 | 4 | 4.1 | 16 | 16.4 | 8 | 8.2 |
| CN1CCN(c2c(F)cc3c(=O)c(C(=O)[O-])cn(CCF)c3c2F)CC1.CN1CCN(c2c(F)cc3c(=O)c(C(=O)[O-])cn(CCF)c3c2F)CC1.CO.CO.[Zn+2] [complex 3, [Zn(flrx)2(MeOH)2]] | 6.07(±0.17) × 10^5 M^–1 | 85.9 | 14.1 | 2.64(±0.07) × 10^13 M^−1s^−1 | 6.15(±0.25) × 10^4 M^−1 | 2.26(±0.10) × 10^13 M^−1s^−1 | 19.8 | 1.86(±0.08) × 10^5 M^−1 | 4.55(±0.21) × 10^13 M^−1s^−1 | 10.8 | 8 | 9.2 | 32 | 36.8 | 8 | 9.2 |
| CN1CCN(c2c(F)cc3c(=O)c(C(=O)[O-])cn(CCF)c3c2F)CC1.CN1CCN(c2c(F)cc3c(=O)c(C(=O)[O-])cn(CCF)c3c2F)CC1.[Zn+2].c1ccc(-c2ccccn2)nc1 [complex 12, [Zn(flrx)2(bipy)]] | 7.25(±0.30) × 10^5 M^–1 | 88.6 | 11.4 | 3.15(±0.13) × 10^13 M^−1s^−1 | 1.04(±0.06) × 10^5 M^−1 | 1.24(±0.04) × 10^13 M^−1s^−1 | 25.9 | 7.89(±0.33) × 10^4 M^−1 | 1.74(±0.08) × 10^13 M^−1s^−1 | 14.1 | 8 | 8.3 | 16 | 16.7 | 8 | 8.3 |
